Reference: ChEMBL document CHEMBL1138166, “Synthesis and antimycobacterial activity of some alkyl [5-(nitroaryl)-1,3,4-thiadiazol-2-ylthio]propionates” (2006)
In brackets after ≈: the same amount, converted by molar mass. Activity calls are given as the source filed them. The calls are words filed in the database; no cut-off is given here.

Tested on: Mycobacterium tuberculosis
Assay: Antimycobacterial activity against Mycobacterium tuberculosis H37Rv by microplate alamar blue assay
Assay type: functional
Details: for MIC: Mycobacterium tuberculosis, H37Rv

Row | SMILES | Activity | Inhibition [%] | MIC [µg/mL]
1 | CCCCOC(=O)CCSc1nnc(-c2ccc([N+](=O)[O-])s2)s1 | Active | 98 | 6.25 (≈ 16.7 µM)
2 | CCCOC(=O)CCSc1nnc(-c2ccc([N+](=O)[O-])o2)s1 | inactive | 0 | > 6.25
3 | CCCOC(=O)CCSc1nnc(-c2ccc([N+](=O)[O-])s2)s1 | Active | 98 | 1.56 (≈ 4.34 µM)
4 | CCOC(=O)C(C)S(=O)(=O)c1nnc(-c2ccc([N+](=O)[O-])s2)s1 (stereo not drawn) | inactive | 82 | > 6.25
5 | CCOC(=O)C(C)Sc1nnc(-c2ccc([N+](=O)[O-])s2)s1 (stereo not drawn) | Active | 92 | 6.25 (≈ 18.1 µM)
6 | CCOC(=O)CCSc1nnc(-c2ccc([N+](=O)[O-])s2)s1 | inactive | 26 | > 6.25
7 | CCOC(=O)C(C)S(=O)(=O)c1nnc(-c2ccc([N+](=O)[O-])o2)s1 (stereo not drawn) | inactive | 78 | > 6.25
8 | CCOC(=O)C(C)Sc1nnc(-c2ncc([N+](=O)[O-])n2C)s1 (stereo not drawn) | Active | 90 | 6.25 (≈ 18.2 µM)
9 | CCOC(=O)C(C)[S+]([O-])c1nnc(-c2ncc([N+](=O)[O-])n2C)s1 (stereo not drawn) | inactive | 11 | > 6.25
10 | CCOC(=O)C(C)Sc1nnc(-c2ccc([N+](=O)[O-])o2)s1 (stereo not drawn) | Active | 98 | 6.25 (≈ 19 µM)
11 | COC(=O)CCSc1nnc(-c2ccc([N+](=O)[O-])s2)s1 | inactive | 76 | > 6.25
12 | CCCCOC(=O)CCSc1nnc(-c2ccc([N+](=O)[O-])o2)s1 | inactive | 0 | > 6.25
13 | O=C(O)CCSc1nnc(-c2ccc([N+](=O)[O-])s2)s1 | inactive | 0 | > 6.25
14 | CCOC(=O)C(C)[S+]([O-])c1nnc(-c2ccc([N+](=O)[O-])o2)s1 (stereo not drawn) | inactive | 6 | > 6.25
15 | O=C(O)CCSc1nnc(-c2ccc([N+](=O)[O-])o2)s1 | Active | 95 | 6.25 (≈ 20.7 µM)
16 | CCOC(=O)C(C)[S+]([O-])c1nnc(-c2ccc([N+](=O)[O-])s2)s1 (stereo not drawn) | inactive | 12 | > 6.25
17 | CO[C@H]1/C=C/O[C@@]2(C)Oc3c(C)c(O)c4c(O)c(c(/C=N/N5CCN(C)CC5)c(O)c4c3C2=O)NC(=O)/C(C)=C\C=C\[C@H](C)[C@H](O)[C@@H](C)[C@@H](O)[C@@H](C)[C@H](OC(C)=O)[C@@H]1C [RIFAMPIN] |  |  | 0.5 (≈ 0.608 µM)
18 | CCOC(=O)C(C)S(=O)(=O)c1nnc(-c2ncc([N+](=O)[O-])n2C)s1 (stereo not drawn) | Active | 100 | 3.12 (≈ 8.31 µM)
19 | COC(=O)CCSc1nnc(-c2ccc([N+](=O)[O-])o2)s1 | inactive | 64 | > 6.25
20 | CCOC(=O)CCSc1nnc(-c2ccc([N+](=O)[O-])o2)s1 | inactive | 14 | > 6.25
